Experiments:
N neuronal α4β2 (h) = N neuronal α4β2 (h) (Homo sapiens, UniProt P17787+P43681); assay: competitive radioligand binding assay, N neuronal α4β2 (h) (agonist radioligand)
CB1 (h) = CB1 (h) (Homo sapiens, UniProt P21554); assay: competitive radioligand binding assay, CB1 (h) (agonist radioligand)
BLT1 (LTB4) (h) = BLT1 (LTB4) (h) (Homo sapiens, UniProt Q15722); assay: competitive radioligand binding assay, BLT1 (LTB4) (h) (agonist radioligand)
I2 = assay: competitive radioligand binding assay, I2 (antagonist radioligand); settings: 10 μM
androgen receptors = biological target: T1, androgen receptors (Homo sapiens, UniProt P10275, T878A); assay: cell-based; format: cell-based
T1 construct: host or cells: LNCaP
T1 sequence (P10275 1-920 T878A): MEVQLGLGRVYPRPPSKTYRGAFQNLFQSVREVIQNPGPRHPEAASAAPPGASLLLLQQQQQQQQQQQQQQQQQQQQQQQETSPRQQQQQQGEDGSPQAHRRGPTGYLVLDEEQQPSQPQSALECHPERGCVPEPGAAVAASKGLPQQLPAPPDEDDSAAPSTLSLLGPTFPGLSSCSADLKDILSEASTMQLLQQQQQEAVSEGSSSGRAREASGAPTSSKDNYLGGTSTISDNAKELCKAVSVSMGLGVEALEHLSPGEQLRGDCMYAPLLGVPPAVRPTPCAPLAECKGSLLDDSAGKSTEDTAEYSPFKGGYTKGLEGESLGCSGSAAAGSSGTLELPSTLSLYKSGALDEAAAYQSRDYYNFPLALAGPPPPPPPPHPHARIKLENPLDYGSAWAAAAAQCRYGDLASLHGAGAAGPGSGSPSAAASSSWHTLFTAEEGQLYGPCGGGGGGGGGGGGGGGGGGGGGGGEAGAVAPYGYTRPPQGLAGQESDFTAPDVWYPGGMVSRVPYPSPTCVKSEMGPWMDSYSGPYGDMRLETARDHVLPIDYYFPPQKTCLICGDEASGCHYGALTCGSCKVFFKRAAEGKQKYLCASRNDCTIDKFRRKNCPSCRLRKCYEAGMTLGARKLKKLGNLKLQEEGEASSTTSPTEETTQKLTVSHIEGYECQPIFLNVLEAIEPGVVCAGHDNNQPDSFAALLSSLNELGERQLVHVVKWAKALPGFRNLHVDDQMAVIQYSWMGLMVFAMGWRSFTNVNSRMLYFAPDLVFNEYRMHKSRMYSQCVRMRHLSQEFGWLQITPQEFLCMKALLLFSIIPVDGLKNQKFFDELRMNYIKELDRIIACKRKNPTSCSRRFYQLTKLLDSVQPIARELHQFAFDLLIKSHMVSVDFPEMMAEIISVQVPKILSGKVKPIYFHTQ
Experimental: The expression of PSA was measured in the culture medium 24 hours thereafter (FIG. 1). […] The LnCAP cells were cultured for a further 5 days and the number of viable cells was then calculated.
FIG. 1. Inhibition of DHT-stimulated PSA expression in LnCAP cells.
These cells are sensitive towards 5-a-dihydrotestosterone (DHT) and in the presence thereof produce cancer markers (PSA). […] Before the experiment, the cells were washed and suspended in the same medium, in which, however, a serum treated with charcoal for removal of hormone traces was used instead of calf serum. The cells (10 000 in total) were embedded into the wells of 96-well plates at 100 μl per well and left for 4 days in an incubator at 37° C. […] The cells were incubated for a further 5 days under the same conditions. Then, samples of the supracellular medium were taken and analyzed for PSA. The test was carried out according to the protocol recommended by the manufacturer of the kit for PSA measurement (Alpha Diagnostic International, USA). After wetting the wells containing PSA antibodies attached to their bottoms, 25 μl of test compounds and 100 μl of PSA antibodies pre-conjugated to horseradish peroxidase were added successively to each well. Following a 30-minute incubation at room temperature, the content of each well was removed, the wells were washed several times, and 100 μl of a peroxidase chromogenic substrate was then added to each well. […] Based on data about the dependence of DHT-related reduction of PSA synthesis on the concentration of test compounds, dose-response curves were plotted to determine IC50 values. Said values were used for calculating apparent inhibition constants (Ki) for compounds of general formula I according to Cheng-Prusoff equation. [Cheng, Y., Prusoff, W. H. “Relationship between the inhibition constant (Ki) and the concentration of inhibitor which causes 50 percent inhibition (IC50) of an enzymatic reaction”. Biochem Pharmacol.

AR (h) = assay: competitive radioligand binding assay, AR (h) (agonist radioligand); set-up: species or system human; settings: 10 μM
A3 (h) = A3 (h) (Homo sapiens, UniProt P0DMS8); assay: competitive radioligand binding assay, A3 (h) (agonist radioligand)
kainate = assay: competitive radioligand binding assay, kainate (agonist radioligand); settings: 10 μM
Cl− channel (GABA-gated) = assay: competitive radioligand binding assay, Cl− channel (GABA-gated) (antagonist radioligand); settings: 10 μM
[1] = biological target: T2, rat AR ligand-binding domain (Rattus norvegicus, UniProt P15207); assay: Competitive-binding assay vs AR ligand Fluormone (PolarScreen Androgen Receptor Competitor Assay, fluorescence polarization)
T2 construct: purchased Invitrogen PV4293
Experimental: Binding to rat AR ligand-binding domain was measured in competition with fluorescently labeled AR ligand Fluormone™ using a commercial assay kit and fluorescence polarization as a read-out.
FIG. 3. Competitive-binding assay vs AR ligand Fluormone™ (PolarScreen™ Androgen Receptor Competitor Assay, Invitrogen, cat. #PV4293).

dopamine transporter (h) = dopamine transporter (h) (Homo sapiens, UniProt Q01959); assay: competitive radioligand binding assay, dopamine transporter (h) (antagonist radioligand)
AMPA = assay: competitive radioligand binding assay, AMPA (agonist radioligand); settings: 10 μM
PR (h) = PR (h) (Homo sapiens, UniProt P06401); assay: competitive radioligand binding assay, PR (h) (agonist radioligand)
P2X = assay: competitive radioligand binding assay, P2X (agonist radioligand); settings: 10 μM
[2] = biological target: choline transporter (CHT1) (h) (Homo sapiens, UniProt Q9GZV3); assay: competitive radioligand binding assay, choline transporter (CHT1) (h) (antagonist radioligand)
α1 (non-selective) = assay: competitive radioligand binding assay, α1 (non-selective (antagonist radioligand)); settings: 10 μM
ER (non-selective) (h) = assay: competitive radioligand binding assay, ER (non-selective) (h) (agonist radioligand); set-up: species or system human; settings: 10 μM

## CNC(=O)c1ccc(N2C(=S)N(c3ccc(C#N)c(C(F)(F)F)c3)C(=O)[C@]23CCOC3)cc1F [(R)-1, 4-[(R)-3-(4-cyano-3-trifluoromethyl-phenyl)-4-oxo-2-thioxo-7-oxa-1,3-diaza-spiro[4.4]non-1-yl]-2-fluoro-N-methyl-benzamide]
N neuronal α4β2 (h)
  inhibition at 10 µM: 0.2%
CB1 (h)
  inhibition at 10 µM: -4.5%
BLT1 (LTB4) (h)
  inhibition at 10 µM: 15.9%
I2
  % Inhibition: 10.1%
Androgen receptors
  AR antagonistic activity (in words): even greater AR antagonistic activity
  fold more efficient than III in inhibiting DHT-induced PSA expression: around 1.9 fold
  fold more efficient than Ia in inhibiting DHT-induced PSA expression: around 1.5 fold
  fold more potent than (S)-stereoisomer (S)-1: more than 10 fold
Androgen receptors; read-out: Ki, inhibition of DHT-induced PSA expression
  Ki: 0.02 µM
AR (h)
  % Inhibition: 96.3%
A3 (h)
  inhibition at 10 µM: -4.9%
kainate
  % Inhibition: 13.1%
Cl− channel (GABA-gated)
  % Inhibition: 42.4%
[1]; rat AR ligand-binding domain, fluorescence polarization (FIG. 3)
  IC50: 7.9 µM
[1]; versus Ia
  fold more efficient binding than Ia: around 2.1 fold
Dopamine transporter (h)
  inhibition at 10 µM: -0.3%
AMPA
  % Inhibition: −23.0%
PR (h)
  inhibition at 10 µM: 66.6%
P2X
  % Inhibition: 28.0%
[2]
  inhibition at 10 µM: 9.7%
α1 (non-selective)
  % Inhibition: 0.7%
ER (non-selective) (h)
  % Inhibition: −7.6%

Source: US9073874B2, “Cyclic N,N′-diarylthioureas and N,N′-diarylureas-androgen receptor antagonists, anticancer agent, method for preparation and use thereof” (priority 2010, dated 2015)
